Source: patent US5415869A, “Taxol formulation” (The Research Foundation of State University of New York, priority 1993, dated 1995)
Where two headings read alike, the source gives them in different places.

Key:
metastatic breast cancer = conditions: phase II, pretreated patients; cited from earlier work
A90 human ovarian tumor = experiment: Cytostatic activity in vitro, A90; type: cell-based; conditions: 0.1% DMSO vs drug dissolved directly in serum-containing growth medium
From the text: (§1) FIG. 7 is a plot of cell lines versus IC50 which compares the growth-inhibitory properties of taxol/liposomes to those of free taxol. Cells were placed at a density of 2×10^4 /ml in multiwell plates and allowed to adhere overnight. Triplicate wells were exposed to various concentration of taxol, either added as liposomes (solid bar), as a 100× concentrated stock in DMSO (stippled bar), or absorbed to serum proteins (hatched bar) in the absence of organic solvent. […] Experiments were repeated at least twice. Cell lines are as follows: Colon-26: murine colon carcinoma; B16: murine melanoma; B16F10: highly-metastatic variant of B16 murine melanoma; L1210: murine leukemia; 9L: rat gliosarcoma; A12la, Hcy-lb, and A90: human ovarian tumor cell lines.

[1] = test system: Colon-26 (C-26), a murine colon tumor model; experiment: Antitumor activity in one dose, s.c. Colon-26; type: in vivo, BALB/c mice
Method: Subcutaneous Colon-26 tumors were initiated and checked daily. When the tumor was measurable (day 8), a single intravenous bolus dose of taxol was given, either in Cremophor EL®/ethanol (Diluent 12) or in liposomes (indicated by the filled circle along the abscissa). Untreated controls received injections of equivalent volumes of saline or Diluent 12 (diluted 1:3) without taxol (panel A). […]
(§3) In all experiments, the tumor volume of each animal was measured frequently, and the data was subjected to statistical analysis using an BMDP 1L program. The median time required for the tumor to reach 1500 mm^3 was determined for each treatment group (as indicated by the insert). […]
Subcutaneous tumors on the left flank were initiated by injection of 10^6 viable cells in a volume of 0.1 ml. […] The dose per mouse was adjusted on the basis of its weight, determined at the time of treatment. […] Animal weight and tumor volume was measured five times weekly until the tumor volume reached 2000 mm^3, at which time animals were sacrificed for humane reasons.

[2] = test system: A121a, a human ovarian tumor line; experiment: Cytostatic activity in vitro, A121a; type: cell-based; conditions: 72 hr
From the text: as §1

[3] = test system: Colon-26 (C-26), a murine colon tumor model; experiment: Antitumor activity in four doses, s.c. Colon-26; type: in vivo, BALB/c mice; conditions: 4 i.v. doses
Method: Subcutaneous Colon-26 tumors were initiated. When the tumor was measurable (day 7), intravenous treatment was initiated and was repeated on days 8, 12, and 13 (as indicated by the filled circles along the abscissa). Untreated controls received injections of saline or Diluent 12 (diluted 1:3) without taxol (panel A). Treatment with liposome-based taxol formulations consisted of 20, 30, or 40 mg/kg doses of the following: taxol, and, PG, and PC multilamellar vesicles ("MLV") (B), taxol, PG, and PC SUV (C), or taxol, PEG-DPPE, and PC SUV (D). Alternatively, free taxol in Diluent 12 (diluted 1:3 with saline), was administered at doses of 10, 20, or 30 mg/kg (E). […] For humane reasons, animals were sacrificed when tumor volume exceeded 2000mm^3.
as §3
Subcutaneous tumors on the left flank were initiated by injection of 10^6 viable cells in a volume of 0.1 ml. […] The dose per mouse was adjusted on the basis of its weight, determined at the time of treatment. […] Animal weight and tumor volume was measured five times weekly until the tumor volume reached 2000 mm^3, at which time animals were sacrificed for humane reasons. […]

[4] = test system: Colon-26 (C-26), a murine colon tumor model; experiment: Antitumor activity in nine doses, s.c. Colon-26
Method: FIGS. 3A-C show plots of mean tumor size versus days after tumor implantation which indicates the antitumor effect of nine doses of free- or liposomal taxol on Colon-26 tumors. Subcutaneous Colon-26 tumors were initiated. When the tumor was measurable (day 8), treatment was initiated. Animals were dosed 3 times weekly, and treatment was given for 3 weeks, as indicated by the filled circle along the abscissa. Untreated controls received injections of saline or Diluent 12 (diluted 1:3) without taxol (panel A). Treatment with liposome-based taxol formulations consisted of 10, 40, or 60 mg/kg doses with taxol, PG, and PC SUV (B). Alternatively, free taxol in Diluent 12 (diluted 1:3 with saline), was administered at doses of 10, 20, or 30 mg/kg (C). […] Each treatment group consisted of ten animals. For humane reasons, animals were sacrificed when tumor volume exceeded 2000 mm^3.
In all experiments, the tumor volume of each animal was measured frequently, and the data was subjected to statistical analysis using an BMDP 1L program. The median time required for the tumor to reach 1500 mm^3 was determined for each treatment group (as indicated by the insert).
The viability of cells was >80% by trypan blue exclusion.
Subcutaneous tumors on the left flank were initiated by injection of 10^6 viable cells in a volume of 0.1 ml. Mice were then randomized into various treatment groups and numbered. The dose per mouse was adjusted on the basis of its weight, determined at the time of treatment. Treatment was started 7 or 8 days after tumor implantation, and consisted of i.v. injections through the tail vein. Buffer or Diluent 12 without taxol were used as control treatments. Animal weight and tumor volume was measured five times weekly until the tumor volume reached 2000 mm^3, at which time animals were sacrificed for humane reasons. Tumor volume was determined by measuring three orthogonal diameters of the tumor, and was calculated as 1/2 of the product of the diameters (Begg, A. C., "Principles and Practices of the Tumor Growth Delay Assay," Rodent Tumor (R. F. Kallman (ed.)), pp. 114-121, New York:Pergammon Press, (1987), which is hereby incorporated by reference). The data was analyzed for statistical significance using the BMDP 1L program (BMDP Statistical Software Inc.; Los Angeles, Calif.).

[5] = Maximum Tolerated Dose / toxicity in healthy mice; type: in vivo; conditions: mouse, in vivo, iv
Method: (§2) The Maximum Tolerated Dose ("MTD") for taxol-liposome formulations administered via the intravenous route was determined in healthy BALB/c female mice. Survey experiments to define the MTD were performed with two animals per group. Doses were escalated in 2-fold increments, starting at 5 mg/kg. Drug effects were determined by close observation of weight changes and survival. The highest non-lethal dose of taxol causing >10% weight loss within one week of cessation of dosing was defined as the MTD. Animals showing weight loss exceeding 20% were sacrificed, as changes of this magnitude often indicate lethal toxicity (E. Mayhew, unpublished observations). After completing the survey experiments, the approximate MTD was refined further using 3 groups of 8 mice.

[6] = test system: healthy BALB/c female mice; experiment: Maximum Tolerated Dose / toxicity in healthy mice; type: in vivo; conditions: i.v., single dose
Method: as §2

[7] = test system: C-26, a murine colon tumor line; experiment: Cytostatic activity in vitro, C-26; type: cell-based
From the text: as §1

human tumor lines = experiment: Cytostatic activity in vitro, human tumor lines; type: cell-based; conditions: human tumor lines more sensitive than C-26
From the text: as §1

tumor cell lines = experiment: Cytostatic activity in vitro, variety of tumor cell lines; type: cell-based; conditions: across tumor cell lines
From the text: as §1

[8] = test system: advanced and refractory ovarian cancer; conditions: phase II, heavily-pretreated patients; cited from earlier work
9L rate gliosarcoma = experiment: Cytostatic activity in vitro, 9L; type: cell-based, rat; conditions: 0.1% DMSO vs drug dissolved directly in serum-containing growth medium
From the text: as §1

[9] = free taxol 20 mg/kg (cumulative 180 mg/kg)

Question: For `CC(=O)O[C@H]1C(=O)[C@@]2(C)[C@H]([C@H](OC(=O)c3ccccc3)[C@]3(O)C[C@H](OC(=O)[C@H](O)[C@@H](NC(=O)c4ccccc4)c4ccccc4)C(C)=C1C3(C)C)[C@]1(OC(C)=O)CO[C@@H]1C[C@@H]2O` [taxol], which overall response rate (metastatic breast cancer) is on record?
Answer: 56%

Question: What about the “enhancement of free taxol activity by DMSO” value (A90 human ovarian tumor) of the same compound?
Answer: approximately 8 fold

Question: What about the “effect on tumor growth” value ([1]; single i.v. dose on day 8, free taxol 15, 25, 30 mg/kg, liposomes 25, 35, 45 mg/kg, vs controls) of the same compound?
Answer: showed no effect on tumor growth

Question: What about the “tumor growth delay, statistical significance (BMDP 1L)” value ([1]; single i.v. dose, time to reach 1500 mm^3) of the same compound?
Answer: no significant delay in tumor growth compared to vehicle or buffer controls (p.0.05)

Question: What about the IC50 [2] of the same compound?
Answer: 1.5 ± 0.7 µM

Question: What about the “effect on tumor growth” value ([3]; days 7, 8, 12, 13, free taxol 10, 20, 30, liposomes 20, 30, 40 mg/kg per injection) of the same compound?
Answer: showed no effect on tumor progression

Question: What about the “tumor growth delay, statistical significance (BMDP 1L)” value ([3]; vs buffer or vehicle controls) of the same compound?
Answer: no significant delay in tumor growth at the dose levels tested, compared to buffer or vehicle controls (p>0.05)

Question: What about the “effect on tumor progression” value ([4]; 9 doses, any dose (10, 20, 30 mg/kg per injection)) of the same compound?
Answer: gave no delay in tumor progression at any dose

Question: What about the “tumor growth delay, statistical significance (BMDP 1L)” value ([4]; 9 doses, time to reach 1500 mm^3) of the same compound?
Answer: No dose of free taxol, up to and including lethal concentrations, had a significant effect on tumor progression

Question: And the “effect on tumor progression” value [4, 9]?
Answer: no effect was observed on tumor progression

Question: And the survival [4, 9]?
Answer: most animals survived

Question: And the “tolerability of individual injections” value ([4]; free taxol 30 mg/kg)?
Answer: tolerated as individual injections

Question: And the lethality ([4]; free taxol 30 mg/kg per injection)?
Answer: cumulatively lethal to all animals by day 21

Question: And the MTD ([5]; owing to the toxicity of Diluent 12, read-out: dose of free taxol that could be given as a single injection)?
Answer: < 35 mg/kg

Question: And the MTD ([5]; single dose, read-out: MTD, single dose)?
Answer: ~30 mg/kg

Question: And the “MTD, single dose” value [6]?
Answer: 30 mg/kg

Question: What about the “effect of DMSO on cytostatic activity” value ([7]; C-26) of the same compound?
Answer: not affected by DMSO

Question: What about the IC50 ([7]; Mus musculus, C-26, 72 hr) of the same compound?
Answer: 90 ± 10 µM

Question: And the “sensitivity to taxol relative to C-26” value (human tumor lines)?
Answer: at least 10 fold

Question: What about the “variation of sensitivity to free taxol” value (tumor cell lines) of the same compound?
Answer: ~100 fold

Question: And the response rate [8]?
Answer: 30%

Question: And the “enhancement of free taxol activity by DMSO” value (9L rate gliosarcoma)?
Answer: approximately 8 fold
